Assay results from patent US20180169045A1, “AMINO ACID COMPOSITIONS AND METHODS FOR THE TREATMENT OF LIVER DISEASES” (AXCELLA HEALTH INC., priority 2016, published 2018).

What was measured:
Assay type in all cases: cell-based
[1] = system: Primary human hepatic stellate cells; test: TNFα-induced IL-6 secretion in primary human hepatic stellate cells (ELISA); conditions: for IL-6 cytokine secretion, in words: primary human hepatic stellate cells from two donors, 3 ng/mL TNFα, 12 h
Protocol: (§1) Primary human hepatic stellate cells were obtained from Samsara Sciences based on the following criteria for selecting donors: adult age (between 18 and 50 years), normal BMI (>18.5 and <25), and absence of confounding liver disease. Primary human hepatic stellate cells grown in Complete HSC Medium to ˜80% confluence in T75 or T150 flasks below passage 10 were seeded into sterile, collagen I coated, 96-well optical plastic microplates (ThermoScientific, 152036) at 4000 cells per well (˜1250 cells per cm^2) and incubated for 6 hours at 37° C., 5% CO2 in a humidified incubator.
After 6 hours, plates were removed from the incubator and the medium gently pipetted off and washed once with 150 μL per well DPBS. The DPBS was removed and the pretreatment medium (±single amino acid dropout, 1×HMDB DMEM+3% dialyzed FBS+0.2% Primocin, ±supplemental amino acid dose; see experiment for medium composition) was applied to the cells at 150 μL per well. Plates were returned to the incubator overnight, ˜14-15 hours.
(§2) After overnight pretreatment, the medium was removed from the cells, and the same pretreatment medium, now supplemented with 3 ng/mL TNFα is applied. Each plate contained 3 ng/mL TNFα in 1× human plasma amino acid (HMDB or PAA) concentration medium, 0 ng/mL in 1×HMDB, and 3 ng/mL TNFα+50 nM Bengamide in 1×HMDB to serve as controls. Plates were incubated for 12 hours at 37° C., 5% CO2.
After 12 hour stimulus with TNFα, supernatant was removed and frozen at −80° C. in two separate aliquots. Plates were washed gently once with DPBS and 100 μL per well of 1×HMDB DMEM+3% dialyzed FBS+0.2% Primocin+10% CCK-8 viability reagent (Dojindo). Plates were incubated for 1 hour at 37° C., 5% CO2.
After 1 hour of incubation, viability was measured on the Synergy plate reader (Absorbance at 977 (test), 900 (reference), and 450 (CCK8) nm). Immediately, the medium was removed and the plates were fixed with 70 μL per well 4% paraformaldehyde in PBS at room temperature for 20 minutes, followed by two 150 μL PBS washes, and stored with 100 μL per well PBS at 4° C. until immunofluorescence staining.
Human CCL2/MCP1 and Human IL-6 were measured by ELISA (Human […] DuoSet ELISA, R&D Systems; Human IL-6 DuoSet ELISA, R&D Systems) at 1/5 and 1/20 dilution in 1× Reagent Diluent (Reagent Ancillary Kit 2, R&D Systems). Data were normalized to the specific per well cell density determined by Hoechst stained nuclei count.

[2] = system: Primary human hepatic stellate cells; test: TGFβ1-induced Col1a1 gene expression in primary human hepatic stellate cells (RT-qPCR); conditions: for Col1a1 gene expression, in words: primary human hepatic stellate cells from three donors, 3 ng/mL TGFβ1, 24 h
Protocol: as §1, with “disease. Cells” for “disease. Primary human hepatic stellate cells”, “at 6000” for “at 4000”, “[…])” for “per cm^2)”, “incubated overnight” for “incubated for 6 hours”, “humidified incubator in DMEM with 2% Fetal Bovine Serum and 1% Antibiotic-Antimycotic.” for “humidified incubator.”
(§3) After the overnight incubation, plates were removed from the incubator and the medium was gently pipetted off and washed twice with 150 μL per well DPBS. The DPBS was removed and the pretreatment medium (±single amino acid dropout, 1×HMDB DMEM+1% Antibiotic-Antimycotic, 10 mM HEPES, ±supplemental amino acid dose; see experiment for medium composition) was applied to the cells at 150 μL per well. Plates were returned to the incubator for 10.5 hours.
as §2, with “10.5 hour” for “overnight”, “TGFβ1, was” for “TNFα is”, “TGFβ1” for “TNFα”, “TGFβ1+20 μM Silybin” for “TNFα+50 nM Bengamide”, “were then” for “were”, “24” for “12”
(§4) After 24 hour stimulus, supernatant was removed and frozen at −80° C. in two separate aliquots. The cells were then washed with 125 μL per well Buffer FCW (FastLane Cell Multiplex NR Kit, Qiagen, 216713). The wash buffer was immediately removed and 50 μL of Cell Processing Mix (containing genomic DNA Wipeout buffer) was applied to lyse cells, incubating for 10 minutes at room temperature. RNA lysate was then transferred to 96-well qPCR plates, sealed, and gDNA was digested on thermal cycler at 75° C. for 5 minutes. RNA lysate was frozen at −80° C.
Each 20 μL one-step RT-qPCR reaction contained 4 μL of RNA lysate. Gene expression of Col1a1, Timp2, and Gapdh were multiplexed using the HEX, Cy5, and FAM fluorescent channels, respectively, with commercially available primer-probe mixes (the Human Col1a1 Primer-Probe Set, HEX; the Human Timp2 Primer-Probe Set, Cy5; and the Human Gapdh Primer-Probe Set, FAM from IDT). Gene expression was evaluated using the ΔΔCq method within each single amino acid dropout and supplementation by normalizing to its own 1×HMDB concentration.

[3] = system: Primary human hepatic stellate cells; test: TGFβ1-induced procollagen Iα1 secretion in primary human hepatic stellate cells (ELISA); conditions: for procollagen Iα1 secretion, in words: primary human hepatic stellate cells from three donors, 3 ng/mL TGFβ1, 24 h
Protocol: as §1, with “disease. Cells” for “disease. Primary human hepatic stellate cells”, “at 6000” for “at 4000”, “[…])” for “per cm^2)”, “incubated overnight” for “incubated for 6 hours”, “humidified incubator in DMEM with 2% Fetal Bovine Serum and 1% Antibiotic-Antimycotic.” for “humidified incubator.”
as §3
as §2, with “10.5 hour” for “overnight”, “TGFβ1, was” for “TNFα is”, “TGFβ1” for “TNFα”, “TGFβ1+20 μM Silybin” for “TNFα+50 nM Bengamide”, “were then” for “were”, “24” for “12”
as §4
Human Procollagen Iα1 was measured from the supernatant by ELISA (Human Pro-Collagen I alpha 1 DuoSet ELISA, R&D Systems) at 1/100 dilution in 1× Reagent Diluent (Reagent Ancillary Kit 2, R&D Systems).

SMILES: CC(=O)N[C@@H](CS)C(=O)O [N-acetylcysteine]
- Fold Change IL-6 Secretion Normalized Per Cell, Mean ([1]; donor 1, Conc. 1000 μM): 0.7141
- Fold Change IL-6 Secretion Normalized Per Cell, Mean ([1]; donor 1, Conc. 2500 μM): 0.7354
- Fold Change IL-6 Secretion Normalized Per Cell, Mean ([1]; donor 1, Conc. 5000 μM): 0.6121
- Fold Change IL-6 Secretion Normalized Per Cell, Mean ([1]; donor 1, Conc. 10000 μM): 0.5716
- Fold Change IL-6 Secretion Normalized Per Cell, Mean ([1]; donor 1, Conc. 5 X): 0.7141
- Fold Change IL-6 Secretion Normalized Per Cell, Mean ([1]; donor 1, Conc. 10 X): 0.7354
- Fold Change IL-6 Secretion Normalized Per Cell, Mean ([1]; donor 1, Conc. 20 X): 0.6121
- Fold Change IL-6 Secretion Normalized Per Cell, Mean ([1]; donor 1, Conc. 40 X): 0.5716
- Fold Change IL-6 Secretion Normalized Per Cell, Mean ([1]; donor 2, Conc. 1000 μM): 0.9161
- Fold Change IL-6 Secretion Normalized Per Cell, Mean ([1]; donor 2, Conc. 2500 μM): 0.9180
- Fold Change IL-6 Secretion Normalized Per Cell, Mean ([1]; donor 2, Conc. 5000 μM): 0.8111
- Fold Change IL-6 Secretion Normalized Per Cell, Mean ([1]; donor 2, Conc. 10000 μM): 0.7064
- Fold Change IL-6 Secretion Normalized Per Cell, Mean ([1]; donor 2, Conc. 5 X): 0.9161
- Fold Change IL-6 Secretion Normalized Per Cell, Mean ([1]; donor 2, Conc. 10 X): 0.9180
- Fold Change IL-6 Secretion Normalized Per Cell, Mean ([1]; donor 2, Conc. 20 X): 0.8111
- Fold Change IL-6 Secretion Normalized Per Cell, Mean ([1]; donor 2, Conc. 40 X): 0.7064
- IL-6 cytokine secretion, in words [1]: reduced IL-6 secretion in both donors but was only statistically significant in one of two donors
- Col1a1 gene expression, in words [2]: significantly reduced Col1a1 gene expression in all three donors
- procollagen Iα1 secretion, in words [3]: significantly decrease procollagen Iα1 secretion in two of the three donors

SMILES: NC(=O)CC[C@H](N)C(=O)O [Glutamine, L-Glutamine]
- Fold Change IL-6 Secretion Normalized Per Cell, Mean ([1]; donor 1, Conc. 749 μM): 0.6320
- Fold Change IL-6 Secretion Normalized Per Cell, Mean ([1]; donor 1, Conc. 3747 μM): 0.5460
- Fold Change IL-6 Secretion Normalized Per Cell, Mean ([1]; donor 1, Conc. 11242 μM): 0.5136
- Fold Change IL-6 Secretion Normalized Per Cell, Mean ([1]; donor 1, Conc. 22484 μM): 0.5138
- Fold Change IL-6 Secretion Normalized Per Cell, Mean ([1]; donor 2, Conc. 749 μM): 0.7673
- Fold Change IL-6 Secretion Normalized Per Cell, Mean ([1]; donor 2, Conc. 11242 μM): 0.6478
- Fold Change IL-6 Secretion Normalized Per Cell, Mean ([1]; donor 2, Conc. 22484 μM): 0.5993
- IL-6 cytokine secretion, in words [1]: significantly reduced IL-6 secretion in both donors
- Col1a1 gene expression, in words [2]: decreased Col1a1 gene expression in two of three donors
- Procollagen Iα1 Secretion (Fold Change of 1X), Mean ([3]; first donor, Conc. 562 μM (baseline)): 1.0000 fold
- procollagen Iα1 secretion, in words [3]: did not have a significant impact
- Procollagen Iα1 Secretion (Fold Change of 1X), Mean ([3]; second donor, Conc. 562 μM (baseline)): 1.0000 fold
- Procollagen Iα1 Secretion (Fold Change of 1X), Mean ([3]; third donor, Conc. 562 μM (baseline)): 1.0000 fold

SMILES: CC(C)[C@H](N)C(=O)O [Valine, L-Valine]
- Fold Change IL-6 Secretion Normalized Per Cell, Mean ([1]; donor 1, Conc. 4684 μM): 0.9790
- Fold Change IL-6 Secretion Normalized Per Cell, Mean ([1]; donor 1, Conc. 11710 μM): 0.9562
- Fold Change IL-6 Secretion Normalized Per Cell, Mean ([1]; donor 1, Conc. 23420 μM): 1.0404
- Fold Change IL-6 Secretion Normalized Per Cell, Mean ([1]; donor 2, Conc. 4684 μM): 1.0383
- Fold Change IL-6 Secretion Normalized Per Cell, Mean ([1]; donor 2, Conc. 11710 μM): 0.9218
- Fold Change IL-6 Secretion Normalized Per Cell, Mean ([1]; donor 2, Conc. 23420 μM): 0.9015
- IL-6 cytokine secretion, in words [1]: no significant effect
- Col1a1 gene expression, in words [2]: did not significantly change
- Procollagen Iα1 Secretion (Fold Change of 1X), Mean ([3]; first donor, Conc. 234 μM (baseline)): 1.0000 fold
- procollagen Iα1 secretion, in words [3]: significantly increased procollagen Iα1 secretion in only one of two donors
- Procollagen Iα1 Secretion (Fold Change of 1X), Mean ([3]; second donor, Conc. 234 μM (baseline)): 1.0000 fold
- Procollagen Iα1 Secretion (Fold Change of 1X), Mean ([3]; third donor, Conc. 234 μM (baseline)): 1.0000 fold

SMILES: CC(C)C[C@H](N)C(=O)O [Leucine, L-Leucine]
- Fold Change IL-6 Secretion Normalized Per Cell, Mean ([1]; donor 1, Conc. 3054 μM): 1.1762
- Fold Change IL-6 Secretion Normalized Per Cell, Mean ([1]; donor 1, Conc. 7635 μM): 1.1215
- Fold Change IL-6 Secretion Normalized Per Cell, Mean ([1]; donor 1, Conc. 15270 μM): 1.0767
- Fold Change IL-6 Secretion Normalized Per Cell, Mean ([1]; donor 2, Conc. 3054 μM): 1.0011
- Fold Change IL-6 Secretion Normalized Per Cell, Mean ([1]; donor 2, Conc. 7635 μM): 0.9574
- Fold Change IL-6 Secretion Normalized Per Cell, Mean ([1]; donor 2, Conc. 15270 μM): 1.0183
- IL-6 cytokine secretion, in words [1]: no significant effect
- Col1a1 gene expression, in words [2]: did not significantly change
- Col1a1 Fold Expression Relative to Control, Mean ([2]; second donor, normalized to Gapdh, Conc. 153 μM (baseline)): 1.01 fold
- Procollagen Iα1 Secretion (Fold Change of 1X), Mean ([3]; first donor, Conc. 153 μM (baseline)): 1.0000 fold
- Procollagen Iα1 Secretion (Fold Change of 1X), Mean ([3]; second donor, Conc. 153 μM (baseline)): 1.0000 fold
- Procollagen Iα1 Secretion (Fold Change of 1X), Mean ([3]; third donor, Conc. 153 μM (baseline)): 1.0000 fold

SMILES: CC[C@H](C)[C@H](N)C(=O)O [Isoleucine, L-Isoleucine]
- Fold Change IL-6 Secretion Normalized Per Cell, Mean ([1]; donor 1, Conc. 1328 μM): 1.0233
- Fold Change IL-6 Secretion Normalized Per Cell, Mean ([1]; donor 1, Conc. 3320 μM): 1.1156
- Fold Change IL-6 Secretion Normalized Per Cell, Mean ([1]; donor 1, Conc. 6639 μM): 1.0859
- Fold Change IL-6 Secretion Normalized Per Cell, Mean ([1]; donor 2, Conc. 1328 μM): 1.1020
- Fold Change IL-6 Secretion Normalized Per Cell, Mean ([1]; donor 2, Conc. 3320 μM): 0.9096
- Fold Change IL-6 Secretion Normalized Per Cell, Mean ([1]; donor 2, Conc. 6639 μM): 1.1648
- IL-6 cytokine secretion, in words [1]: no significant effect
- Col1a1 gene expression, in words [2]: did not significantly change
- procollagen Iα1 secretion, in words [3]: significantly increased procollagen Iα1 secretion in two of three donors
- Procollagen Iα1 Secretion (Fold Change of 1X), Mean ([3]; second donor, Conc. 66 μM (baseline)): 1.0000 fold
- Procollagen Iα1 Secretion (Fold Change of 1X), Mean ([3]; third donor, Conc. 66 μM (baseline)): 1.0000 fold

SMILES: N=C(N)NCCC[C@H](N)C(=O)O [Arginine, L-Arginine]
- IL-6 cytokine secretion, in words [1]: no significant effect
- Col1a1 gene expression, in words [2]: did not significantly change
- Procollagen Iα1 Secretion (Fold Change of 1X), Mean ([3]; first donor, Conc. 109 μM (baseline)): 1.0000 fold
- procollagen Iα1 secretion, in words [3]: significantly increased procollagen Iα1 secretion in two of three donors
- Procollagen Iα1 Secretion (Fold Change of 1X), Mean ([3]; second donor, Conc. 109 μM (baseline)): 1.0000 fold
- Procollagen Iα1 Secretion (Fold Change of 1X), Mean ([3]; third donor, Conc. 109 μM (baseline)): 1.0000 fold
